Measured values published in US20140135326A1, “METHOD OF TREATMENT OF AGGRESSION” (Supernus Pharmaceuticals, Inc., priority 2012, published 2014).

Assays:
Type in all cases: in vivo, human
[1] = Phase IIb study, safety and tolerability; conditions: throughout the study, across all doses
Description: A Phase IIb study was conducted for the treatment of impulsive aggression in Attention Deficit and Hyperactivity Disorder (ADHD) patients with a pharmaceutical preparation of molindone. The study was a multi-center randomized, double-blind, placebo controlled clinical trial in children 6 to 12 diagnosed with ADHD and characterized by impulsive aggression that is not controlled by optimal stimulant and psychosocial treatment. It was a dose finding study with the primary objective of identifying an effective dose range in children of different weight or age groups. The children were divided into two […] (i.e., less than 30 kg and greater than or equal to 30 kg). The low, medium, and high doses for the under 30 kg group were 12 mg, 24 mg, and 36 mg, respectively. Similarly, the low, medium, and high doses for the 30 kg and over group were 18 mg, 36 mg, and 54 mg, respectively. Three doses of molindone were studied with the primary endpoints of (a) effect in reducing impulsive aggression (measured with change in the score of the Retrospective-Modified Overt Aggression Scale “R-MOAS” at the end of the study from the baseline), and (b) rate of remission of aggression, after at least three weeks of treatment. Secondary objectives included safety and tolerability of molindone as well as the effect on the Clinical Global Impression and the Oppositional […] […]

[2] = system: impulsive aggression in ADHD patients; assay: Phase IIb study, rate of remission of aggression (R-MOAS ≦ 10); conditions: for Remission Rate at End of Study (Visit 10): R-MOAS ≦ 10, LOCF
Description: (§1) A Phase IIb study was conducted for the treatment of impulsive aggression in Attention Deficit and Hyperactivity Disorder (ADHD) patients with a pharmaceutical preparation of molindone. The study was a multi-center randomized, double-blind, placebo controlled clinical trial in children 6 to 12 diagnosed with ADHD and characterized by impulsive aggression that is not controlled by optimal stimulant and psychosocial treatment. It was a dose finding study with the primary objective of identifying an effective dose range in children of different weight or age groups. The children were divided into two […] (i.e., less than 30 kg and greater than or equal to 30 kg). The low, medium, and high doses for the under 30 kg group were 12 mg, 24 mg, and 36 mg, respectively. Similarly, the low, medium, and high doses for the 30 kg and over group were 18 mg, 36 mg, and 54 mg, respectively. Three doses of molindone were studied with the primary endpoints of (a) effect in reducing impulsive aggression (measured with change in the score of the Retrospective-Modified Overt Aggression Scale “R-MOAS” at the end of the study from the baseline), and (b) rate of remission of aggression, after at least three weeks of treatment. Secondary objectives included safety and tolerability of molindone as well as the effect on the Clinical Global Impression and the Oppositional […] Disorder subscale score of the SNAP-IV Questionnaire and other endpoints [e.g., SNAP, clinical labs, AEs, etc.]. Patients who completed the study were offered the opportunity to continue into an open-label phase of six months duration.

[3] = system: impulsive aggression in ADHD patients; assay: Phase IIb study, R-MOAS score change from baseline
Description: as §1

CCc1c(C)[nH]c2c1C(=O)C(CN1CCOCC1)CC2 (stereo not drawn) [molindone]
tolerability [1]: well tolerated | Remission, Treatment vs Placebo Odds Ratio ([2]; <30 kg, high dose (36 mg)): 0.62 | Remission, Treatment vs Placebo Odds Ratio ([2]; <30 kg, low dose (12 mg)): 1.53 | Remission, Treatment vs Placebo Odds Ratio ([2]; <30 kg, medium dose (24 mg)): 1.36 | Remission Rate at End of Study (Visit 10) ([2]; <30 kg, high dose (36 mg)): 3 (21.4) n(%) | Remission Rate at End of Study (Visit 10) ([2]; <30 kg, low dose (12 mg)): 4 (33.3) n(%) | Remission Rate at End of Study (Visit 10) ([2]; <30 kg, medium dose (24 mg)): 4 (26.7) n(%) | Remission Rate at End of Study (Visit 10) ([2]; ≧30 kg, high dose (54 mg)): 7 (41.2) n(%) | Remission Rate at End of Study (Visit 10) ([2]; ≧30 kg, low dose (18 mg)): 10 (66.7) n(%) | Remission Rate at End of Study (Visit 10) ([2]; ≧30 kg, medium dose (36 mg)): 8 (53.3) n(%) | Remission, Treatment vs Placebo Odds Ratio ([2]; ≧30 kg, high dose (54 mg)): 4.07 | Remission, Treatment vs Placebo Odds Ratio ([2]; ≧30 kg, low dose (18 mg)): 12.08 | Remission, Treatment vs Placebo Odds Ratio ([2]; ≧30 kg, medium dose (36 mg)): 7.07 | efficacy across any of the measures ([3]; 30 kg or more, high dose (54 mg)): did not show efficacy | R-MOAS (LOCF) Change from Baseline, mean (SD) ([3]; <30 kg, high dose (36 mg)): −16.4 (36.90) | R-MOAS (LOCF) End of treatment (visit 10), mean (SD) ([3]; <30 kg, high dose (36 mg)): 32.2 (24.14) | R-MOAS (LOCF) Change from Baseline, mean (SD) ([3]; <30 kg, low dose (12 mg)): −25.1 (23.00) | R-MOAS (LOCF) End of treatment (visit 10), mean (SD) ([3]; <30 kg, low dose (12 mg)): 34.2 (27.29) | R-MOAS (LOCF) Change from Baseline, mean (SD) ([3]; <30 kg, medium dose (24 mg)): −30.7 (31.22) | R-MOAS (LOCF) End of treatment (visit 10), mean (SD) ([3]; <30 kg, medium dose (24 mg)): 38.5 (36.70) | statistical significance vs placebo on the R-MOAS endpoint ([3]; patients under 30 kg, the studied doses (12, 24, 36 mg)): did not show statistical significance | R-MOAS (LOCF) Change from Baseline, mean (SD) ([3]; ≧30 kg, high dose (54 mg)): −23.0 (27.55) | R-MOAS (LOCF) End of treatment (visit 10), mean (SD) ([3]; ≧30 kg, high dose (54 mg)): 28.8 (40.60) | R-MOAS (LOCF) Change from Baseline, mean (SD) ([3]; ≧30 kg, low dose (18 mg)): −41.7(32.48) | R-MOAS (LOCF) End of treatment (visit 10), mean (SD) ([3]; ≧30 kg, low dose (18 mg)): 9.8 (13.01) | R-MOAS (LOCF) Change from Baseline, mean (SD) ([3]; ≧30 kg, medium dose (36 mg)): −40.9(34.84) | R-MOAS (LOCF) End of treatment (visit 10), mean (SD) ([3]; ≧30 kg, medium dose (36 mg)): 13.5(15.71)
